Data taken from PubChem BioAssay AID256 (DTP/NCI, 2004).
Where “and” joins values, the source holds several entries; their conditions need not be identical. Identical values can stand only once. Inconclusive results and toxic doses are left out.

Tested on: CD2F1 mice, L1210 leukemia ip, survival T/C
Assay: NCI In Vivo Anticancer Drug Screen. Data for tumor model L1210 Leukemia (intraperitoneal) in CD2F1 (CDF1) mice
Conditions: higher = longer survival
Outline: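 Activity against a transplanted murine tumor was judged by comparing the compound group with a vehicle group. The outcome in the treated animals was divided by that in the controls.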

[1] = endpoint: mean survival time, dose: 100.0 mg/kg/injection, schedule: Q01DX001 (ip), vehicle: saline with Tween-80
[2] = endpoint: mean survival time, dose: 400.0 mg/kg/injection, schedule: Q01DX001 (ip), vehicle: saline with Tween-80
[3] = endpoint: mean survival time, dose: 100.0 mg/kg/injection, schedule: Q04DX003 (ip), vehicle: saline with Tween-80
[4] = endpoint: mean survival time, dose: 200.0 mg/kg/injection, schedule: Q04DX003 (ip), vehicle: saline with Tween-80
[5] = endpoint: mean survival time, dose: 400.0 mg/kg/injection, schedule: Q04DX003 (ip), vehicle: saline with Tween-80
[6] = endpoint: mean survival time, dose: 100.0 mg/kg/injection, schedule: Q04DX002 (ip), vehicle: saline with Tween-80
[7] = endpoint: mean survival time, dose: 200.0 mg/kg/injection, schedule: Q04DX002 (ip), vehicle: saline with Tween-80
[8] = endpoint: mean survival time, dose: 400.0 mg/kg/injection, schedule: Q04DX002 (ip), vehicle: saline with Tween-80
[9] = endpoint: mean survival time, dose: 200.0 mg/kg/injection, schedule: Q01DX001 (ip), vehicle: saline with Tween-80
[10] = endpoint: mean survival time, dose: 100.0 mg/kg/injection, schedule: Q01DX009 (ip), vehicle: saline with Tween-80
[11] = endpoint: mean survival time, dose: 200.0 mg/kg/injection, schedule: Q01DX009 (ip), vehicle: saline with Tween-80
[12] = endpoint: mean survival time, dose: 400.0 mg/kg/injection, schedule: Q01DX009 (ip), vehicle: saline with Tween-80

With COc1ccc([NH-])cc1.COc1ccc([NH-])cc1.[Br][Pt+2][Br] the T/C (endpoint: mean survival time, dose: 3.12 mg/kg/injection, schedule: Q04DX003 (ip), vehicle: distilled water + Tween-80) was 111 % of control, the T/C (endpoint: mean survival time, dose: 6.25 mg/kg/injection, schedule: Q04DX003 (ip), vehicle: distilled water + Tween-80) was 108 % of control and the T/C (endpoint: mean survival time, dose: 12.5 mg/kg/injection, schedule: Q04DX003 (ip), vehicle: distilled water + Tween-80) was 114 % of control. The T/C (endpoint: mean survival time, dose: 25.0 mg/kg/injection, schedule: Q04DX003 (ip), vehicle: distilled water + Tween-80) was 111 % of control and the T/C (endpoint: mean survival time, dose: 50.0 mg/kg/injection, schedule: Q04DX003 (ip), vehicle: distilled water + Tween-80) was 98 % of control.
N#Cc1ccccc1NN=NCc1ccccc1 was tested, and the T/C [1] was 97 % of control and the T/C [2] was 90 % of control.
For O=S(=O)(Nc1c(Cl)c(Cl)c(NS(=O)(=O)c2ccccc2)c(Cl)c1Cl)c1ccccc1, the T/C (endpoint: mean survival time, dose: 100.0 mg/kg/injection, schedule: Q04DX003 (ip), vehicle: Klucel (hydroxypropylcellulose) (HPC)) was 98 % of control, the T/C (endpoint: mean survival time, dose: 200.0 mg/kg/injection, schedule: Q04DX003 (ip), vehicle: Klucel (hydroxypropylcellulose) (HPC)) was 91 % of control and the T/C (endpoint: mean survival time, dose: 400.0 mg/kg/injection, schedule: Q04DX003 (ip), vehicle: Klucel (hydroxypropylcellulose) (HPC)) was 103 % of control.
With O=CC(O)C(O)C(O)C(O)CO (configuration not stated) the T/C (endpoint: mean survival time, dose: 100.0 mg/kg/injection, schedule: Q01DX009 (ip), vehicle: saline) was 93 % of control, the T/C (endpoint: mean survival time, dose: 200.0 mg/kg/injection, schedule: Q01DX009 (ip), vehicle: saline) was 91 % of control and the T/C (endpoint: mean survival time, dose: 0.2 grams/kg/injection, schedule: Q03DX003 (ip), vehicle: water) was 100 % of control. The T/C (endpoint: mean survival time, dose: 400.0 mg/kg/injection, schedule: Q01DX009 (ip), vehicle: saline) was 95 % of control, the T/C (endpoint: mean survival time, dose: 0.4 grams/kg/injection, schedule: Q03DX003 (ip), vehicle: water) was 108 % of control and the T/C (endpoint: mean survival time, dose: 0.8 grams/kg/injection, schedule: Q03DX003 (ip), vehicle: water) was 107 % of control. The T/C (endpoint: mean survival time, dose: 1.5 grams/kg/injection, schedule: Q03DX003 (ip), vehicle: water) was 100 % of control, the T/C (endpoint: mean survival time, dose: 3.0 grams/kg/injection, schedule: Q03DX003 (ip), vehicle: water) was 101 % of control and the T/C (endpoint: mean survival time, dose: 6.0 grams/kg/injection, schedule: Q03DX003 (ip), vehicle: water) was 100 % of control. For the same compound, the T/C (endpoint: mean survival time, dose: 12.0 grams/kg/injection, schedule: Q03DX003 (ip), vehicle: water) was 106 % of control, the T/C (endpoint: median survival time, dose: 75.0 mg/kg/injection, schedule: Q01DX009 (ip), vehicle: saline) was 101 % of control and the T/C (endpoint: median survival time, dose: 150.0 mg/kg/injection, schedule: Q01DX009 (ip), vehicle: saline) was 101 % of control. The T/C (endpoint: median survival time, dose: 300.0 mg/kg/injection, schedule: Q01DX009 (ip), vehicle: saline) was 100 % of control, the T/C (endpoint: median survival time, dose: 600.0 mg/kg/injection, schedule: Q01DX009 (ip), vehicle: saline) was 100 % of control and the T/C (endpoint: median survival time, dose: 1200.0 mg/kg/injection, schedule: Q01DX009 (ip), vehicle: saline) was 102 % of control.
In the case of CCC(C(=N)C#N)[N+](=O)[O-] (configuration not stated), the T/C (endpoint: mean survival time, dose: 100.0 mg/kg/injection, schedule: Q04DX002 (ip), vehicle: saline) is reported as 91 % of control, the T/C (endpoint: mean survival time, dose: 200.0 mg/kg/injection, schedule: Q04DX002 (ip), vehicle: saline) is reported as 95 % of control and the T/C (endpoint: mean survival time, dose: 400.0 mg/kg/injection, schedule: Q04DX002 (ip), vehicle: saline) is reported as 91 % of control.
O=C(O)c1[nH]c(=O)[nH]c(=O)c1F was tested, and the T/C (endpoint: mean survival time, dose: 1.25 mg/kg/injection, schedule: Q01DX009 (ip), vehicle: saline) was 101 % of control and 109 % of control, the T/C (endpoint: mean survival time, dose: 2.5 mg/kg/injection, schedule: Q01DX007 (ip), vehicle: Klucel (hydroxypropylcellulose) (HPC)) was 119 % of control and the T/C (endpoint: mean survival time, dose: 2.5 mg/kg/injection, schedule: Q01DX009 (ip), vehicle: saline) was 123 % of control. The T/C (endpoint: mean survival time, dose: 2.5 mg/kg/injection, schedule: Q03DX003 (ip), vehicle: Klucel (hydroxypropylcellulose) (HPC)) was 110 % of control, the T/C (endpoint: mean survival time, dose: 2.5 mg/kg/injection, schedule: Q04DX003 (ip), vehicle: Klucel (hydroxypropylcellulose) (HPC)) was 103 % of control and the T/C (endpoint: mean survival time, dose: 5.0 mg/kg/injection, schedule: Q01DX007 (ip), vehicle: Klucel (hydroxypropylcellulose) (HPC)) was 165 % of control. For the same compound, the T/C (endpoint: mean survival time, dose: 5.0 mg/kg/injection, schedule: Q01DX009 (ip), vehicle: saline) was 168 % of control, the T/C (endpoint: mean survival time, dose: 5.0 mg/kg/injection, schedule: Q03DX003 (ip), vehicle: Klucel (hydroxypropylcellulose) (HPC)) was 122 % of control and the T/C (endpoint: mean survival time, dose: 5.0 mg/kg/injection, schedule: Q04DX003 (ip), vehicle: Klucel (hydroxypropylcellulose) (HPC)) was 112 % of control. For the same compound, the T/C (endpoint: mean survival time, dose: 10.0 mg/kg/injection, schedule: Q01DX007 (ip), vehicle: Klucel (hydroxypropylcellulose) (HPC)) was 119 % of control and the T/C (endpoint: mean survival time, dose: 10.0 mg/kg/injection, schedule: Q04DX003 (ip), vehicle: Klucel (hydroxypropylcellulose) (HPC)) was 117 % of control.
With O=S(=O)(OCCOC(c1ccccc1)(c1ccccc1)c1ccccc1)c1ccc(Br)cc1 the T/C [3] was 94 % of control, the T/C [4] was 90 % of control and the T/C [5] was 98 % of control.
For CCCCCCCCCCCCOCCC(=O)O, the T/C (endpoint: mean survival time, dose: 75.0 mg/kg/injection, schedule: Q04DX003 (ip), vehicle: saline) was 97 % of control, the T/C (endpoint: mean survival time, dose: 150.0 mg/kg/injection, schedule: Q04DX003 (ip), vehicle: saline) was 103 % of control and the T/C (endpoint: mean survival time, dose: 300.0 mg/kg/injection, schedule: Q04DX003 (ip), vehicle: saline) was 95 % of control.
CC(C)CCC(=O)/C=C\c1ccccc1 was tested, and the T/C (endpoint: mean survival time, dose: 50.0 mg/kg/injection, schedule: Q04DX002 (ip), vehicle: saline with Tween-80) was 104 % of control, the T/C [6] was 96 % of control and the T/C [7] was 86 % of control. For the same compound, the T/C [8] was 86 % of control.
For COc1cc(-c2cc(OC)c(O)c(OC)c2)cc(OC)c1O, the T/C [1] was 96 % of control, the T/C [9] was 101 % of control and the T/C [2] was 90 % of control.
Brc1ccc2c(c1)-c1ccccc1C2Br (configuration not stated) was tested, and the T/C (endpoint: mean survival time, dose: 62.5 mg/kg/injection, schedule: Q04DX003 (ip), vehicle: saline with Tween-80) was 107 % of control, the T/C (endpoint: mean survival time, dose: 125.0 mg/kg/injection, schedule: Q04DX003 (ip), vehicle: saline with Tween-80) was 109 % of control and the T/C (endpoint: mean survival time, dose: 250.0 mg/kg/injection, schedule: Q04DX003 (ip), vehicle: saline with Tween-80) was 98 % of control.
[CH3][Sb]([CH3])([CH3])([O]C(=O)C(Cl)(Cl)Cl)[O]C(=O)C(Cl)(Cl)Cl was tested, and the T/C [6] was 98 % of control, the T/C [7] was 107 % of control and the T/C [8] was 103 % of control.
CN(C)c1ccc(CN2CCCN(Cc3ccc(N(C)C)cc3)C2c2ccncc2)cc1 was tested, and the T/C [10] was 94 % of control, the T/C [3] was 104 % of control and the T/C [11] was 95 % of control. For the same compound, the T/C [4] was 103 % of control, the T/C [12] was 95 % of control and the T/C [5] was 103 % of control.
In the case of CCCCC(CCC)(CCN)CCCC, the T/C (endpoint: mean survival time, dose: 3.0 mg/kg/injection, schedule: Q01DX009 (ip), vehicle: saline) is reported as 106 % of control, the T/C (endpoint: mean survival time, dose: 6.0 mg/kg/injection, schedule: Q01DX009 (ip), vehicle: saline) is reported as 98 % of control and the T/C (endpoint: mean survival time, dose: 12.0 mg/kg/injection, schedule: Q01DX009 (ip), vehicle: saline) is reported as 104 % of control. The T/C (endpoint: mean survival time, dose: 12.5 mg/kg/injection, schedule: Q04DX003 (ip), vehicle: saline) was 103 % of control.
For COC(=C\c1ccccc1)/C(=N/Nc1ccc([N+](=O)[O-])cc1[N+](=O)[O-])c1ccccc1, the T/C [1] was 101 % of control, the T/C [9] was 109 % of control and the T/C [2] was 109 % of control.
For CC(=O)OCC1OC(OC2C(COC(C)=O)OC(OC(C)=O)C(OC(C)=O)C2OC(C)=O)C(OC(C)=O)C(OC(C)=O)C1OC(C)=O (configuration not stated), the T/C (endpoint: mean survival time, dose: 100.0 mg/kg/injection, schedule: Q01DX001 (ip), vehicle: saline) was 100 % of control, the T/C (endpoint: mean survival time, dose: 200.0 mg/kg/injection, schedule: Q01DX001 (ip), vehicle: saline) was 91 % of control and the T/C (endpoint: mean survival time, dose: 400.0 mg/kg/injection, schedule: Q01DX001 (ip), vehicle: saline) was 97 % of control.
With O=[N+]([O-])c1c[c]([Hg][Cl])c(O)[c]([Hg][Cl])c1 the T/C (endpoint: mean survival time, dose: 12.5 mg/kg/injection, schedule: Q04DX003 (ip), vehicle: saline with Tween-80) was 93 % of control.
With Cc1cccc(CCc2cccc(C)n2)n1 the T/C (endpoint: mean survival time, dose: 100.0 mg/kg/injection, schedule: Q04DX003 (ip), vehicle: saline) was 103 % of control, the T/C (endpoint: mean survival time, dose: 200.0 mg/kg/injection, schedule: Q04DX003 (ip), vehicle: saline) was 103 % of control and the T/C (endpoint: mean survival time, dose: 400.0 mg/kg/injection, schedule: Q04DX003 (ip), vehicle: saline) was 103 % of control.
In the case of CCCCCCCCCCCCCCCC(=O)N1CCC(N2CCCCC2)CC1, the T/C (endpoint: mean survival time, dose: 50.0 mg/kg/injection, schedule: Q01DX009 (ip), vehicle: saline with Tween-80) is reported as 95 % of control, the T/C [10] is reported as 97 % of control and the T/C [3] is reported as 92 % of control. For the same compound, the T/C [11] was 92 % of control and the T/C [4] was 88 % of control.
With CC(C)N1CCOCC1 the T/C (endpoint: mean survival time, dose: 100.0 mg/kg/injection, schedule: Q04DX003 (ip), vehicle: acetone) was 100 % of control.
NC(=O)c1cc(=O)[nH]o1 was tested, and the T/C [10] was 102 % of control, the T/C [11] was 96 % of control and the T/C [12] was 107 % of control.
